{"source": "patent US5700640A", "about": "“Inducers of gamma globin gene expression and screening assays therefor” (priority 1994, dated 1997)", "key": {"[1]": {"test_system": "BA-induced reporter gene expression in gamma3'PE K562 cells", "test": "effect of extracellular KCl on BA-induced reporter gene activity", "type": "cell-based, human", "protocol": "Valinomycin is a potassium ionophore known to cause depolarization of the K^+ gradient existing across cell membranes. To determine whether the effect of valinomycin indicated a requirement for a K^+ gradient for uptake of BA, gamma3'PE reporter cells were incubated in the presence of culture medium supplemented with increasing concentrations of KCl. Thus, as opposed to valinomycin, this treatment extinguishes the existing K^+ gradient from the external side of the membrane without affecting internal K^+ concentrations. Cells cultured in increasing concentrations on KCl were treated for 5 hours with BA and then harvested and assayed for luciferase activity. The results are shown in FIG. 10, wherein the bars indicate the level of reporter gene activity after induction in the presence of the indicated concentration of KCl and the asterisks indicate basal (uninduced) levels of reporter gene activity in replicate cultures."}, "[2]": {"test_system": "gamma globin-regulated luciferase mRNA", "test": "cells", "type": "cell-based, human", "protocol": "Total RNA was prepared by the method of McDonald as described in Sambrook et al., (1989) Molecular Cloning: A Laboratory Manual, 2nd Edition, Cold Spring Harbor Laboratory Press. 10 μg total cellular RNA was electrophoresed through agarose gels containing 3.3% formaldehyde. The electrophoresed RNA was then transferred to nitrocellulose filters by standard methods. Each sample was hybridized to specific probes for gamma globin mRNA, mRNA encoding the erythroid specific transcription factor GATA-1 and 28S ribosomal RNA (which was used for standardization). The gamma globin and GATA-1 probes were cDNA probes, which were labeled with ^32 p by random priming reactions (Promega Biotech Inc.). The 28S ribosomal RNA probe was an oligonucleotide having the sequence 5' […] 3' (SEQ ID NO: 3), which was labeled by 5' end labeling using T4 polynucleotide kinase (New England Biolabs). Nucleotide probes were hybridized to the RNA nitrocellulose filters according to standard techniques. After hybridization, radioactive signals on the nitrocellulose filters were directly quantified using a BioRad GS-250 Molecular Imager. mRNA hybridization intensities were normalized to the amount of 28S ribosomal RNA present for each sample. The results are summarized below in Table 1:\nTo determine if BA exerts its inductive effects by acting directly on pre-existing proteins in the cells, the effect of the protein synthesis inhibitor cycloheximide (CHX) on BA-induced expression of RNA was analyzed. In these experiments, gamma3'PE cells were incubated with 150 μg/ml CHX for 2 hr prior to addition of BA (5 mM). Control cells were incubated with either CHX or BA alone or were mock incubated. Cells were harvested 5 hr later for preparation of total RNA. RNA samples were electrophoresed, transferred to nitrocellulose and hybridized to a ^32 P-labeled luciferase cDNA probe as described in Example 4. The radioactive signals on the filter were quantitated using a BioRad GS-250 Molecular Imager and mRNA levels were normalized to values obtained for mock treated samples. […]"}, "[3]": {"test_system": "GATA-1 mRNA", "test": "GATA-1 mRNA level (Northern) with BA and/or cycloheximide in gamma3'PE cells", "type": "cell-based, human", "protocol": "To determine if BA exerts its inductive effects by acting directly on pre-existing proteins in the cells, the effect of the protein synthesis inhibitor cycloheximide (CHX) on BA-induced expression of RNA was analyzed. In these experiments, gamma3'PE cells were incubated with 150 μg/ml CHX for 2 hr prior to addition of BA (5 mM). Control cells were incubated with either CHX or BA alone or were mock incubated. Cells were harvested 5 hr later for preparation of total RNA. RNA samples were electrophoresed, transferred to nitrocellulose and hybridized to a ^32 P-labeled luciferase cDNA probe as described in Example 4. The radioactive signals on the filter were quantitated using a BioRad GS-250 Molecular Imager and mRNA levels were normalized to values obtained for mock treated samples. The results are presented graphically in FIG. 12, Panel A. BA treatment alone increased gamma globin-regulated luciferase mRNA by approximately 6 fold.\nThe results, normalized to mock treated samples, are depicted graphically in FIG. 12, Panel B. In contrast to luciferase mRNA which was induced by BA treatment, the level of GATA-1 RNA decreases about 3 fold in response to BA treatment."}, "[4]": {"test_system": "gamma globin reporter gene activity in gamma3'PE K562 cells (protein kinase C inhibition)", "test": "effect of the pKC inhibitor hypericin on basal and BA-induced reporter gene activity", "type": "cell-based, human", "conditions": "10 mM hypericin, 1 hour before 5 mM BA for 24 hours", "protocol": "Consistent with the results using the pKC activator (-) indolactam V are the results of experiments utilizing the pKC inhibitor hypericin. In these experiments, cells were incubated in the presence or absence of hypericin (10 mM; LC Laboratories) for one hour prior to treatment with 5 mMBA for 24 hours, followed by harvesting of the cells and assaying of luciferase activity."}, "[5]": {"test_system": "BA-mediated induction of luciferase activity in gamma3'PE K562 cells", "test": "effect of transport inhibitors on BA-induced reporter gene activity in gamma3'PE K562 cells", "type": "cell-based, human", "protocol": "To characterize uptake of butyric acid by erythroid cells, K562 cells stably transfected with gamma3'PE were treated with BA in the presence of various transport inhibitors. […] Cells were maintained in the continuous presence of both BA and the inhibitor for 24 hours and then luciferase activity in the cells was measured."}, "[6]": {"test_system": "14C BA transport into K562 cells", "test": "14C butyric acid incorporation into gamma3'PE-transfected K562 cells", "type": "cell-based, human", "conditions": "valinomycin 10 μM, 1 hour preincubation; 50 μM 14C BA", "protocol": "To directly examine whether transport of BA into erythroid cells required an intact K+ gradient, the incorporation of ^14 C BA into gamma3'PE-transfected K562 cells was assayed in the presence and absence of 10 μM valinomycin. Cells were incubated with 10 μM valinomycin for 1 hour prior to addition of ^14 C butyric acid (obtained commercially from Dupont/New England Nuclear) to a final concentration of 50 μM. At various times after addition of ^14 C BA, cells were harvested by vacuum filtration through a GF/C filter (Whatman) and washed with a total of 5 ml of RPMI culture media. Radioactivity associated with the cells was quantified directly by liquid scintillation counting of the filter. The results, shown in FIG. 11, indicate that the rate of ^14 C BA incorporation into the cells is inhibited nearly three fold by the addition of valinomycin. Although cells treated with valinomycin did accumulate some ^14 C BA, it is not clear whether this was actually internalized or bound to the surface of the cell. Neutralization of the potassium gradient could be expected to selectively prevent internalization but not binding of radioligand. […] Accordingly, the results described herein are consistent with an erythroid-specific transport mechanism for uptake of BA that is dependent upon an intact K^+ gradient across the cell membrane."}, "[7]": {"test_system": "K562 cells", "test": "trypan blue exclusion", "type": "cell-based, human"}, "[8]": {"test_system": "BA uptake by colonocytes", "conditions": "Mascolo et al. 1991; cited from earlier work"}}, "data": [{"smiles": "[Cl-].[K+]", "note": "[KCl]", "values": [{"measurement": "basal level globin expression at higher K+ concentrations", "setting": "[1]; K+ above approximately 200 mM", "result": "a reduction in basal level globin expression was observed at higher K^+ concentrations"}, {"measurement": "external K+ concentration inhibiting BA-induced reporter gene expression", "setting": "[1]; KCl in medium, BA 5 hours", "result": "approximately 200 mM"}, {"measurement": "effect on basal level gene expression", "setting": "[1]; approximately 200 mM KCl", "result": "basal level gene expression was not affected"}]}, {"smiles": "C[C@@H]1C[C@@H]([C@H](O)CC2CC(=O)NC(=O)C2)C(=O)[C@@H](C)C1", "note": "[cycloheximide]", "values": [{"measurement": "effect of cycloheximide alone on luciferase mRNA", "setting": "[2]; 150 μg/ml CHX alone", "result": "significant increase in gamma globin-regulated luciferase mRNA, albeit to a lower level than that observed with BA"}, {"measurement": "effect of cycloheximide on BA-mediated induction of luciferase mRNA", "setting": "[2]; CHX 150 μg/ml 2 hr before BA 5 mM", "result": "failed to block BA-mediated induction of luciferase mRNA"}, {"measurement": "effect of cycloheximide alone on GATA-1 mRNA level", "setting": "[3]; 150 μg/ml CHX alone", "result": "insensitive to cycloheximide treatment alone"}, {"measurement": "effect of cycloheximide on BA induced decrease in GATA-1 mRNA level", "setting": "[3]; CHX 150 μg/ml plus BA 5 mM", "result": "sensitive to cycloheximide treatment"}]}, {"smiles": "Cc1cc(O)c2c(=O)c3c(O)cc(O)c4c5c(O)cc(O)c6c(=O)c7c(O)cc(C)c8c1c2c(c34)c(c78)c65", "note": "[hypericin]", "values": [{"measurement": "effect on basal level and BA induced globin gene expression", "setting": "[4]", "result": "significant reduction in both basal level and BA induced globin gene expression"}]}, {"smiles": "CC(C)[C@@H]1NC(=O)[C@H](C)OC(=O)[C@@H](C(C)C)NC(=O)[C@@H](C(C)C)OC(=O)[C@H](C(C)C)NC(=O)[C@H](C)OC(=O)[C@@H](C(C)C)NC(=O)[C@@H](C(C)C)OC(=O)[C@H](C(C)C)NC(=O)[C@H](C)OC(=O)[C@@H](C(C)C)NC(=O)[C@@H](C(C)C)OC1=O", "note": "[valinomycin]", "values": [{"measurement": "reduction in BA-mediated globin gene induction", "setting": "[5]; valinomycin 10 μM, 24 hours", "result": 4, "unit": "fold"}, {"measurement": "effect on basal level globin gene expression", "setting": "[5]; valinomycin, no BA", "result": "did not affect basal level globin gene expression"}, {"measurement": "inhibition of rate of 14C BA incorporation", "setting": "[6]", "result": "three"}, {"measurement": "non-specific toxic effect", "setting": "[7]", "result": "did not result from a non-specific toxic effect"}, {"measurement": "effect on BA uptake by colonocytes", "setting": "[8]", "result": "not inhibited by valinomycin"}]}]}
